Test results reported in PubChem BioAssay (NCI).
Where “and” joins values, the source holds several entries; their conditions need not be identical. Equal entries are not always repeated.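 A five-concentration, 48-hour dose response in 96-well plates underlies each endpoint, interpolated linearly between surrounding concentrations. At the GI50, growth is halved. TGI: total growth inhibition.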

Experiments:
Test in all cases: NCI anticancer screen, dose series, 48 h
EKVX NSCLC = test system: EKVX NSCLC
HOP-62 NSCLC = test system: HOP-62 NSCLC
K-562 leukemia = test system: K-562 leukemia
MDA-MB-231 breast = test system: MDA-MB-231 breast
NCI-H226 lung = test system: NCI-H226 lung
OVCAR-3 ovarian = test system: OVCAR-3 ovarian
PC-3 prostate = test system: PC-3 prostate
TK-10 renal = test system: TK-10 renal
UACC-257 melanoma = test system: UACC-257 melanoma
UO-31 renal = test system: UO-31 renal

SMILES	TGI (EKVX NSCLC)	TGI (HOP-62 NSCLC)	TGI (K-562 leukemia)	TGI (MDA-MB-231 breast)	TGI (NCI-H226 lung)	TGI (OVCAR-3 ovarian)	TGI (PC-3 prostate)	TGI (TK-10 renal)	TGI (UACC-257 melanoma)	TGI (UO-31 renal)	GI50 (NCI-H226 lung)	GI50 (TK-10 renal)
O=C(O)CCC(NC(=O)/C(=C/c1ccccc1)NC(=O)c1ccccc1)C(=O)O (configuration not stated)	> 100 µM	> 100 µM	> 100 µM	> 100 µM	> 100 µM	> 100 µM	> 100 µM	> 100 µM	> 100 µM	> 100 µM		
Cc1nc(C)c(C(=O)NNC(=O)c2ccccc2)cc1C(=O)NNC(=O)c1ccccc1	> 10 µM	> 100 µM	> 100 µM	> 100 µM	> 100 µM	> 100 µM	> 100 µM	> 100 µM	> 100 µM	> 100 µM		
C/C(=N/NC(=O)c1ccccc1Nc1ccccc1C(=O)N/N=C(\C)c1ccc(C)cc1)c1ccc(C)cc1	> 100 µM	> 100 µM	> 100 µM	> 100 µM	> 100 µM	> 100 µM	> 100 µM	> 100 µM	> 100 µM	> 100 µM		
N#Cc1nc(-c2ccccn2)c(-c2ccccn2)nc1C#N	15.7 µM	17 µM	19.4 µM	> 53 µM	5.51 µM	> 42.9 µM	19.7 µM	17.3 µM	14.7 µM	5.64 µM		
Cc1nc2cccc(F)c2c(=O)n1-c1nnc(C2CC2)s1	> 10 µM	> 10 µM	> 10 µM	> 10 µM	> 10 µM	> 10 µM	> 10 µM	> 10 µM	> 10 µM	> 10 µM		
COC1OC2COC(c3ccccc3)OC2C(OC(=S)c2ccccc2)C1O (configuration not stated)	5.82 µM	41.1 µM	> 100 µM	78.1 µM	> 100 µM	> 100 µM	74.9 µM	> 100 µM	> 100 µM	> 100 µM		
Cn1c(-c2cccs2)cc(-c2ccsc2)c1-c1ccsc1	> 100 µM	> 100 µM	> 100 µM	> 100 µM	> 100 µM	> 100 µM	> 100 µM	> 100 µM	> 100 µM	> 100 µM		
CC(=O)c1nc(C#N)c(N)o1	> 100 µM	> 100 µM	> 100 µM	> 100 µM	> 100 µM	> 100 µM	> 100 µM	> 100 µM	> 100 µM	> 100 µM		
NC(=O)c1nnc2c(F)cccc2c1N	> 100 µM	> 100 µM	> 100 µM	> 100 µM	> 100 µM	> 100 µM	> 100 µM	> 100 µM	> 100 µM	> 100 µM		
O=C(N(C1=CCCC1)N(c1ccccc1)c1ccccc1)C(F)(F)F	39.1 µM	69.4 µM	68.7 µM	34.3 µM	42.3 µM	44.4 µM	> 100 µM	> 100 µM	58.9 µM	75.6 µM		
NC(=O)c1ccc(S(=O)(=NS(=O)(=O)c2ccccc2)c2ccc(C(N)=O)cc2)cc1	> 100 µM	> 100 µM	> 100 µM	> 100 µM	> 100 µM	> 100 µM	> 100 µM	> 100 µM	> 100 µM	> 100 µM		
N#Cc1c(NC(=S)Nc2ccccc2)sc2c1CCCC2	> 100 µM	> 100 µM	> 100 µM	> 100 µM	> 100 µM	> 100 µM	> 100 µM	> 100 µM	> 100 µM	> 100 µM		
Cc1cnc2cc(Cl)ccc2c1SCC(=O)O	> 100 µM	> 100 µM	> 100 µM	> 100 µM	> 100 µM	> 100 µM	> 100 µM	> 100 µM	> 100 µM	> 100 µM		
COc1cc2c3c4[n+](cc2c(OC)c1OC)CCC4CCC3 (configuration not stated)	> 100 µM	> 100 µM	> 100 µM	> 100 µM	> 100 µM	> 100 µM	> 100 µM	> 100 µM	> 100 µM	> 100 µM		
Clc1ccc(C2=NNC(c3cccc(Cl)c3)C2)cc1 (configuration not stated)	> 100 µM	> 100 µM	> 100 µM	55.1 µM	> 100 µM	> 100 µM	97.4 µM	79.9 µM	> 100 µM	21.4 µM		
O=C1CSC(c2cc3cc(Br)ccc3nc2Cl)N1c1ccc(F)c(Cl)c1 (configuration not stated)	> 50 µM	> 50 µM	> 50 µM	> 50 µM	> 50 µM	> 50 µM	> 50 µM	> 50 µM	> 50 µM	> 50 µM		

SMILES	TGI (EKVX NSCLC)	TGI (HOP-62 NSCLC)	TGI (K-562 leukemia)	TGI (MDA-MB-231 breast)	TGI (NCI-H226 lung)	TGI (OVCAR-3 ovarian)	TGI (PC-3 prostate)	TGI (TK-10 renal)	TGI (UACC-257 melanoma)	TGI (UO-31 renal)	GI50 (NCI-H226 lung)	GI50 (TK-10 renal)
CSC(=N/N=C(\C)c1ccc(S(=O)(=O)N(C)c2ccccc2)cc1)SC	> 100 µM	> 100 µM	> 100 µM	> 100 µM	> 100 µM	> 100 µM	> 100 µM	> 100 µM	> 100 µM	> 100 µM		
CC(NC1=NCCO1)c1ccco1 (configuration not stated)	> 100 µM	> 100 µM	> 100 µM	> 100 µM	> 100 µM	> 100 µM	> 100 µM	> 100 µM	> 100 µM	> 100 µM		
CC(C)(C)C1=CC(O)(c2c3ccccc3c(C3(O)C=C(C(C)(C)C)C(=O)C(C(C)(C)C)=C3)c3ccccc23)C=C(C(C)(C)C)C1=O	> 100 µM	> 100 µM	> 100 µM	> 100 µM	> 100 µM	> 100 µM	> 100 µM	> 100 µM	> 100 µM	> 100 µM		
CC(C)c1cc(C(C)C)c(B(c2ccccc2)c2ccccc2)c(C(C)C)c1Br	> 100 µM	> 100 µM	> 100 µM	> 100 µM	> 100 µM	> 100 µM	> 100 µM	> 100 µM	> 100 µM	> 100 µM		
Cc1cc(C)c(N)c(CO)c1	> 100 µM	> 100 µM	> 100 µM	> 100 µM	1.73 µM and 4.56 µM	> 100 µM	> 100 µM	18.7 µM and > 38.5 µM	> 100 µM	> 100 µM	0.236 µM and 1.26 µM	2.61 µM and 6.9 µM
CO/C=C(/C(=O)OC)c1ccccc1[C@H]1C[C@@H]1c1ccccc1	54.6 µM	> 100 µM	> 100 µM	> 100 µM	74.4 µM	67.3 µM	> 100 µM	> 100 µM	41.3 µM	> 100 µM		
CCOC(=O)c1sc2[n+](c1C)C(=O)/C(=C/c1ccccc1Cl)S2	> 100 µM	60.9 µM	24.2 µM	> 27.8 µM	23.1 µM	21.1 µM	> 85.6 µM	57 µM	> 70.2 µM	25 µM		
[O-][n+]1cc(SCc2ccccc2)ncc1SCc1ccccc1	> 10 µM	> 10 µM	> 10 µM	> 10 µM	> 10 µM	> 10 µM	> 10 µM	> 10 µM	> 10 µM	> 10 µM		
O=C1CCc2c(sc3ncnc(Nc4cccc(Br)c4)c23)C1	12.4 µM	18.7 µM	> 22.7 µM	11.5 µM	14.8 µM	8.31 µM	10.3 µM	14.5 µM	11.6 µM	5.23 µM		
CCOC(=O)N1c2c(c3ccccc3n2C(=O)OCC)C(=O)C(OC)N1C(=O)OCC (configuration not stated)	> 100 µM	> 100 µM	> 100 µM	83.6 µM	> 100 µM	> 100 µM	80.5 µM	> 100 µM	> 100 µM	> 100 µM		
COc1nc2ncc([C@@H](O)[C@H](O)CO)nc2c(=O)[nH]1	> 100 µM	> 100 µM	> 100 µM	> 100 µM	> 100 µM	> 100 µM	> 100 µM	> 100 µM	> 100 µM	> 100 µM		
O=C(OCC(OC(=O)c1ccccc1)C1CC(C(O)C2CCCCC2)C(=O)O1)c1ccccc1 (configuration not stated)	> 100 µM	> 100 µM	50.5 µM	> 100 µM	> 100 µM	> 100 µM	> 100 µM	> 100 µM	> 100 µM	> 100 µM		
O=C(CSCC(=O)N/N=C\c1cccc(Br)c1)N/N=C\c1cccc(Br)c1	63.7 µM	31.7 µM	68.4 µM	26.2 µM	36.5 µM	26.6 µM	38.1 µM	24.8 µM	33.2 µM	33.1 µM		
CC(=O)N1C(=O)/C(=C\C(=O)c2ccc(Cl)cc2)c2ccccc21	36.2 µM	41.2 µM	> 100 µM	30.3 µM	44.5 µM	30.6 µM	19.6 µM	30.5 µM	30.7 µM	29.6 µM		
N#CC(NNC(=O)c1c(Cl)c(Cl)c(Cl)c(Cl)c1-c1nc2ccc(C(=O)c3ccccc3)cc2[nH]1)c1cccc(Oc2ccccc2)c1 (configuration not stated)	37.6 µM	70.2 µM	> 100 µM	45.2 µM	53.1 µM	> 100 µM	54 µM	95.1 µM	> 100 µM	> 100 µM		
c1ccc2c(c1)[C@@H]1O[C@@H]1[C@@]13O[C@@]21[C@H]1O[C@H]1c1ccccc13	31.9 µM	30.8 µM	41.7 µM	33.6 µM	31.3 µM	32.1 µM	30 µM	62.2 µM	37.2 µM	51.1 µM		
